The source of these data is patent US20050009889A1 (priority 2002, published 2005).

What all share (assay type): in vivo
For experiment [1], the system named is Erysiphe graminis f. sp. tritici. In words: Test A: preventive control of wheat powdery mildew on wheat seedlings. The following applies: wheat seedlings sprayed to run-off, inoculated next day, rated after 7 days; concentration not given. From the text:
(§1) General protocol for preparing test suspensions: Test compounds are first dissolved in acetone in an amount equal to 3% of the final volume and then suspended at the desired concentration (in ppm) in acetone and purified water (50/50 mix) containing 250 ppm of the surfactant Trem® 014 (polyhydric alcohol esters). The resulting test suspensions are then used in the following tests. Spraying a 200 ppm test suspension to the point of run-off on the test plants is the equivalent of a rate of 500 g/ha.
The test suspension was sprayed to the point of run-off on wheat seedlings. The following day the seedlings were inoculated with a spore dust of Erysiphe graminis f. sp. tritici, (the causal agent of wheat powdery mildew) and incubated in a growth chamber at 20° C. for 7 days, after which disease ratings were made.

The subject of another experiment is grape downy mildew. The experiment in a line: Curative utility, in addition to the Tests of Table A. The following applies: especially for grape downy mildew.
Experiment [2] relates to Phytophthora infestans. Conditions: tomato seedlings sprayed to run-off, inoculated next day; concentration not given.
The subject of experiment [3] is Phytophthora infestans. The following applies: curative; 100 ppm on potato seedlings.
Experiment [4] relates to Plasmopara viticola. The experiment in a line: Test G: curative control of grape downy mildew on grape seedlings.
Text: as §1
Grape seedlings are inoculated with a spore suspension of Plasmopara viticola (the casual agent of grape downy mildew) and incubated in a saturated atmosphere at 20° C. for 24 h. The next day, test suspension is sprayed to the point of run-off and the treated plants are moved to a growth chamber at 20° C. for 6 days, and then incubated in a saturated atmosphere at 20° C. for 24 h, after which disease ratings are made.

Another experiment concerns Pyricularia oryzae. The following applies: rice seedlings sprayed to run-off, inoculated next day; concentration not given.
Experiment [5] has as its system Plasmopara viticola. In words: Test E: preventive control of grape downy mildew on grape seedlings. The following applies: grape seedlings sprayed to run-off, inoculated next day; concentration not given.
Text: as §1
The test suspension was sprayed to the point of run-off on grape seedlings. The following day the seedlings were inoculated with a spore suspension of Plasmopara viticola (the causal agent of grape downy mildew) and incubated in a saturated atmosphere at 20° C. for 24 h, moved to a growth chamber at 20° C. for 6 days, and then incubated in a saturated atmosphere at 20° C. for 24 h, after which disease ratings were made.

The next experiment deals with Puccinia recondita. In words: Test B: preventive control of wheat leaf rust on wheat seedlings. Conditions: wheat seedlings sprayed to run-off, inoculated next day; concentration not given.
Text: as §1
The test suspension was sprayed to the point of run-off on wheat seedlings. The following day the seedlings were inoculated with a spore suspension of Puccinia recondita (the causal agent of wheat leaf rust) and incubated in a saturated atmosphere at 20° C. for 24 h, and then moved to a growth chamber at 20° C. for 6 days, after which disease ratings were made.

Where [6] appears, read: grape seedlings, curative, 100 ppm (footnote *).

Marks after values point to notes of the source that are not given here.

For “2,4-Dichloro-N-[1-[3-chloro-5-(trifluoromethyl)-2-pyridinyl]ethyl]-3-pyridinecarboxamide [Compound 21]”, the “Test A disease control rating (100 = 100% disease control, 0 = no control)” value in experiment [1] was 0%. In addition, the curative utility result with grape downy mildew is reported as “significant curative utility”. Also, in the experiment on Phytophthora infestans [2], the “Test D disease control rating (100 = 100% disease control, 0 = no control)” value was determined as 100%. Moreover, the “Test F disease control rating (100 = 100% disease control, 0 = no control)” value with Phytophthora infestans [3] is listed as 100# %. Also, the “Test G disease control rating (100 = 100% disease control, 0 = no control)” value in the experiment on Plasmopara viticola [4] (setting [6]) is 100* %. In addition, the “Test C disease control rating (100 = 100% disease control, 0 = no control)” value in the experiment with Pyricularia oryzae was 0%. Besides, the “Test E disease control rating (100 = 100% disease control, 0 = no control)” value with Plasmopara viticola [5] was 100%. For the same compound, in the experiment with Puccinia recondita, the “Test B disease control rating (100 = 100% disease control, 0 = no control)” value was 74%.
On to “2,4-Dichloro-N-[[3-chloro-5-(trifluoromethyl)-2-pyridinyl]methyl]-3-pyridinecarboxamide [Compound 19]”, for which the “Test A disease control rating (100 = 100% disease control, 0 = no control)” value in experiment [1] was found to be 0%. The curative utility result with grape downy mildew was “significant curative utility”. Further, the “Test D disease control rating (100 = 100% disease control, 0 = no control)” value in the experiment on Phytophthora infestans [2] is 100%. Moreover, the “Test F disease control rating (100 = 100% disease control, 0 = no control)” value with Phytophthora infestans [3] is recorded as 97# %. Further, the “Test G disease control rating (100 = 100% disease control, 0 = no control)” value in the experiment on Plasmopara viticola [4] (setting [6]) is 37* %. For the same compound, the “Test C disease control rating (100 = 100% disease control, 0 = no control)” value with Pyricularia oryzae turned out to be 0%. For the same compound, the “Test E disease control rating (100 = 100% disease control, 0 = no control)” value in the experiment with Plasmopara viticola [5] was determined as 100%. The “Test B disease control rating (100 = 100% disease control, 0 = no control)” value in the experiment with Puccinia recondita was 35%.
`CC(NC(=O)c1c(Cl)ccnc1Cl)c1ncc(C(F)(F)F)cc1Cl` (single isomer, unassigned; (+)) [Compound 22, (+)-2,4-Dichloro-N-[1-[3-chloro-5-(trifluoromethyl)-2-pyridinyl]ethyl]-3-pyridinecarboxamide]: the curative utility entry in the experiment on grape downy mildew is “significant curative utility”. Besides, in the experiment on Phytophthora infestans [2], the “Test D disease control rating (100 = 100% disease control, 0 = no control)” value came out at 100%. In addition, the “Test F disease control rating (100 = 100% disease control, 0 = no control)” value with Phytophthora infestans [3] is 100# %. Moreover, the “Test G disease control rating (100 = 100% disease control, 0 = no control)” value in the experiment on Plasmopara viticola [4] (grape seedlings, curative, 20 ppm) is 100** %. Further, the “Test C disease control rating (100 = 100% disease control, 0 = no control)” value in the experiment with Pyricularia oryzae stood at 0%. For the same compound, in the experiment on Plasmopara viticola [5], the “Test E disease control rating (100 = 100% disease control, 0 = no control)” value was found to be 100%.
For `Cc1cc(Cl)c(C(=O)NCc2ncc(C(F)(F)F)cc2Cl)c(Cl)n1` [Compound 5, 2,4-Dichloro-N-[[3-chloro-5-(trifluoromethyl)-2-pyridinyl]methyl]-6-methyl-3-pyridinecarboxamide], the “Test A disease control rating (100 = 100% disease control, 0 = no control)” value in experiment [1] amounted to 0%. The curative utility result in the experiment with grape downy mildew is given as “significant curative utility”. Besides, the “Test D disease control rating (100 = 100% disease control, 0 = no control)” value in the experiment with Phytophthora infestans [2] amounted to 100%. Moreover, the “Test F disease control rating (100 = 100% disease control, 0 = no control)” value in the experiment with Phytophthora infestans [3] is recorded as 100# %. Besides, the “Test G disease control rating (100 = 100% disease control, 0 = no control)” value in the experiment on Plasmopara viticola [4] (grape seedlings inoculated, sprayed next day (curative), concentration not given) was 96%. The “Test E disease control rating (100 = 100% disease control, 0 = no control)” value in the experiment on Plasmopara viticola [5] is listed as 100%. The “Test B disease control rating (100 = 100% disease control, 0 = no control)” value in the experiment with Puccinia recondita was 8%.
As for `Cc1cnc(Cl)c(C(=O)NCc2ncc(C(F)(F)F)cc2Cl)c1Cl` [Compound 20], the “Test A disease control rating (100 = 100% disease control, 0 = no control)” value in experiment [1] amounted to 0%. In the experiment with grape downy mildew, the curative utility result was “significant curative utility”. Further, the “Test D disease control rating (100 = 100% disease control, 0 = no control)” value in the experiment with Phytophthora infestans [2] was 100%. Moreover, the “Test F disease control rating (100 = 100% disease control, 0 = no control)” value in the experiment on Phytophthora infestans [3] was 24# %. In the experiment with Plasmopara viticola [4] (setting [6]), the “Test G disease control rating (100 = 100% disease control, 0 = no control)” value is 100* %. In addition, the “Test C disease control rating (100 = 100% disease control, 0 = no control)” value in the experiment with Pyricularia oryzae is recorded as 0%. In the experiment on Plasmopara viticola [5], the “Test E disease control rating (100 = 100% disease control, 0 = no control)” value came to 100%. For the same compound, in the experiment on Puccinia recondita, the “Test B disease control rating (100 = 100% disease control, 0 = no control)” value amounted to 54%.
